From patent US20250276973A1, “CRYSTAL OF 7H-PYRROLO[2,3-D]PYRIMIDINE-4-AMINE DERIVATIVE” (TAIHO PHARMACEUTICAL CO., LTD., priority 2022, published 2025)

Experiments:
[1] = Dynamic vapor sorption (DVS) test; assay type: physicochemical; settings: 25° C.; for Hygroscopicity (result in words): 5 to 95% RH; for Reversibility of water adsorption when the humidity was decreased: decrease from 95% to 5% RH
Method: Vapor sorption tests were performed using the type II crystal of Compound (1) in free form, the type III crystal of Compound (1) in free form, the type VII crystal of Compound (1) in free form, and the type VIII crystal of Compound (1) in free form obtained in the examples, reference example, and comparative example.
Vapor sorption tests were conducted under the following conditions.
Approximately 10 mg of the sample was filled into a specialized quartz holder to continuously measure and record the weight of the sample at each humidity was under the following conditions. The instrument, including data processing, was handled in accordance with the method and procedure indicated for each instrument. • Instrument: VTI-SA+(manufactured by TA Instruments) • Drying temperature: 60° C. • Heating rate: 1° C./min • Equilibration of drying: Confirmation of no more than 0.01 wt % decrease in 5 minutes within a period not exceeding 300 minutes • Measurement temperature: 25° C. • Equilibration of humidification: Confirmation of no more than 0.01 wt % increase in 5 minutes within a period not exceeding 120 minutes • Relative humidity program: Increase from 5 to 95% RH in increments of 5% RH, and decrease from 95% to 5% RH in increments of 5% RH. • Changes in the weight over the range of the measurement conditions obtained in these tests are shown in FIGS. 9 through 12.
Vapor sorption tests were performed using the type III crystal of Compound (1) with succinic acid, the type I crystal of Compound (1) with citric acid, the type IV crystal of Compound (1) with citric acid, the type I crystal of Compound (1) with sorbic acid, and the type I crystal of Compound (1) with phosphoric acid obtained in the examples, reference example, and comparative examples.
Vapor sorption tests were conducted under the same conditions as in Test Example 2.

[2] = Solid stability test (4 weeks of storage at 80° C., closed system; HPLC); assay type: physicochemical; settings: for Chemical purity after 4 weeks of storage at 80° C. / Solid stability (result in words): 80° C. (closed system), 4 weeks; for Chemical purity after 4 weeks of storage at 80° C.: glass bottle; for Chemical purity after 4 weeks of storage at 80° C. / Chemical purity before storage: HPLC; for Solid stability (result in words): related substances by HPLC; for Change (chemical purity): after 4 weeks at 80° C. versus before storage; for Chemical purity before storage: UV 220
Method: The solid stability of the type II crystal of Compound (1) in free form, the type III crystal of Compound (1) in free form, the type VII crystal of Compound (1) in free form, and the type VIII crystal of Compound (1) in free form obtained in the examples, reference example, and comparative example were evaluated after 4 weeks of storage by the following procedure. • Storage conditions: 80° C. (closed system) (HIFLEX (high-temperature storage chamber manufactured by ETAC)) • Storage period: 4 weeks • Storage volume: Approximately 30 mg • Storage container: Glass bottle
Changes in the mass of the related substances (the amounts of detected substances other than Compound (1)) were analyzed by HPLC according to the following method. Approximately 8 mg of each sample was weighed and dissolved in I mL of a chloroform-methanol mixture (1:1 v/v). Fifty μL of this solution was measured and diluted with 950 μL of an acetonitrile-water mixture (7:3), and 5 μL of the resulting solution was accurately measured and used as the sample for the analysis.
The mass of the related substances in the sample solution was determined by HPLC analysis. The instrument, including data processing, was handled in accordance with the method and procedure indicated for each instrument. • Column: InertSustainSwift C18 (2.1×50 mm, 1.9 μm) manufactured by GL Sciences • UV detection: […] • Column temperature: 40° C. • Flow rate: 0.3 mL/min • Sample cooler: 10° C. • Sample concentration: 0.1 mg/mL • Mobile phase A: 10 mmol/L phosphate buffer (pH 6.8)/acetonitrile (95:5) mixture • Mobile phase B: Acetonitrile • The gradients are shown in Table 4.
The solid stability of the type III crystal of Compound (1) with succinic acid, the type I crystal of Compound (1) with citric acid, the type IV crystal of Compound (1) with citric acid, the type I crystal of Compound (1) with sorbic acid, and the type I crystal of Compound (1) with phosphoric acid obtained in the examples, reference example, and comparative examples were evaluated after 4 weeks of storage. The evaluation method, storage, and measurement conditions were as described in Test Example 1.

[3] = listed as Type II crystal in free form
[4] = listed as type III crystal of Compound (1) in free form

C#Cc1c(-c2cnc3ccccc3c2)c2c(N)ncnc2n1C12CCC(NC(=O)c3cnc(C)cn3)(CC1)C2 [Type I crystal of Compound (1) with citric acid] [N-(4-(4-amino-6-ethynyl-5-(quinolin-3-yl)-7H-pyrrolo[2,3-d]pyrimidin-7-yl)bicyclo[2.2.1]heptan-1-yl)-5-methylpyrazine-2-carboxamide]
Hygroscopicity (result in words) [1]: highly hygroscopic | Chemical purity after 4 weeks of storage at 80° C. [2]: 99.03% | Solid stability (result in words) [2]: unstable crystals with decreases in purity | Change (chemical purity) [2]: −0.72% | Chemical purity before storage [2]: 99.75%

C#Cc1c(-c2cnc3ccccc3c2)c2c(N)ncnc2n1C12CCC(NC(=O)c3cnc(C)cn3)(CC1)C2 [Type I crystal of Compound (1) with phosphoric acid] [N-(4-(4-amino-6-ethynyl-5-(quinolin-3-yl)-7H-pyrrolo[2,3-d]pyrimidin-7-yl)bicyclo[2.2.1]heptan-1-yl)-5-methylpyrazine-2-carboxamide]
Hygroscopicity (result in words) [1]: highly hygroscopic | Chemical purity after 4 weeks of storage at 80° C. [2]: 99.50% | Solid stability (result in words) [2]: unstable crystals with decreases in purity | Change (chemical purity) [2]: −0.40% | Chemical purity before storage [2]: 99.90%

C#Cc1c(-c2cnc3ccccc3c2)c2c(N)ncnc2n1C12CCC(NC(=O)c3cnc(C)cn3)(CC1)C2 [Type II crystal of Compound (1) in free form] [N-(4-(4-amino-6-ethynyl-5-(quinolin-3-yl)-7H-pyrrolo[2,3-d]pyrimidin-7-yl)bicyclo[2.2.1]heptan-1-yl)-5-methylpyrazine-2-carboxamide]
Hygroscopicity (result in words) [1]: hardly hygroscopic | Weight increase under 95% relative humidity ([1]; 95% RH): 0.16% | Chemical purity after 4 weeks of storage at 80° C. [2, 3]: 99.78% | Solid stability (result in words) [2]: extremely stable crystals with almost no increase in the related substances | Change (chemical purity) [2, 3]: −0.02% | Chemical purity before storage [2, 3]: 99.80%

C#Cc1c(-c2cnc3ccccc3c2)c2c(N)ncnc2n1C12CCC(NC(=O)c3cnc(C)cn3)(CC1)C2 [Type III crystal in free form, N-(4-(4-amino-6-ethynyl-5-(quinolin-3-yl)-7H-pyrrolo[2,3-d]pyrimidin-7-yl)bicyclo[2.2.1]heptan-1-yl)-5-methylpyrazine-2-carboxamide]
Hygroscopicity (result in words) [1]: low hygroscopicity as long as RH is less than 65% | Hygroscopicity (result in words) [1, 4]: hygroscopicity that sharply increased at above 65% RH | Reversibility of water adsorption when the humidity was decreased [1, 4]: reversible | Chemical purity after 4 weeks of storage at 80° C. [2]: 99.60% | Solid stability (result in words) [2, 4]: extremely stable crystals with almost no increase in the related substances | Change (chemical purity) [2]: +0.02% | Chemical purity before storage [2]: 99.58%

C#Cc1c(-c2cnc3ccccc3c2)c2c(N)ncnc2n1C12CCC(NC(=O)c3cnc(C)cn3)(CC1)C2 [Type IV crystal of Compound (1) with citric acid] [N-(4-(4-amino-6-ethynyl-5-(quinolin-3-yl)-7H-pyrrolo[2,3-d]pyrimidin-7-yl)bicyclo[2.2.1]heptan-1-yl)-5-methylpyrazine-2-carboxamide]
Hygroscopicity (result in words) [1]: highly hygroscopic | Chemical purity after 4 weeks of storage at 80° C. [2]: 93.49% | Solid stability (result in words) [2]: unstable crystals with decreases in purity | Change (chemical purity) [2]: −6.42% | Chemical purity before storage [2]: 99.91%

C#Cc1c(-c2cnc3ccccc3c2)c2c(N)ncnc2n1C12CCC(NC(=O)c3cnc(C)cn3)(CC1)C2 [Type VII crystal in free form, N-(4-(4-amino-6-ethynyl-5-(quinolin-3-yl)-7H-pyrrolo[2,3-d]pyrimidin-7-yl)bicyclo[2.2.1]heptan-1-yl)-5-methylpyrazine-2-carboxamide]
Hygroscopicity (result in words) [1]: highly hygroscopic | Reversibility of water adsorption when the humidity was decreased [1]: irreversible | Chemical purity after 4 weeks of storage at 80° C. [2]: 99.63% | Solid stability (result in words) ([2]; listed as type VII crystal of Compound (1) in free form): extremely stable crystals with almost no increase in the related substances | Chemical purity before storage [2]: 99.63%

C#Cc1c(-c2cnc3ccccc3c2)c2c(N)ncnc2n1C12CCC(NC(=O)c3cnc(C)cn3)(CC1)C2 [Type VIII crystal in free form, N-(4-(4-amino-6-ethynyl-5-(quinolin-3-yl)-7H-pyrrolo[2,3-d]pyrimidin-7-yl)bicyclo[2.2.1]heptan-1-yl)-5-methylpyrazine-2-carboxamide]
Hygroscopicity (result in words) [1]: highly hygroscopic | Reversibility of water adsorption when the humidity was decreased [1]: irreversible | Chemical purity after 4 weeks of storage at 80° C. [2]: 99.43% | Change (chemical purity) [2]: −0.19% | Chemical purity before storage [2]: 99.62%
